Numbers after ± are expanded uncertainties.
Conditions: Liquid, Vibrating tube method

CCCCCCN [1-hexanamine]
mass density [kg/m3]
Conditions	293.15 K	353.15 K	363.15 K	373.15 K	383.15 K
100 kPa	765 ± 0.3	712.4 ± 0.3	703.9 ± 0.3	694.8 ± 0.3	686.1 ± 0.3
10000 kPa	771.2 ± 0.4	722.4 ± 0.4	714.4 ± 0.4	706 ± 0.4	698.2 ± 0.4
20000 kPa	777.4 ± 0.5	731.1 ± 0.6	723.6 ± 0.6	716 ± 0.6	708.6 ± 0.6
30000 kPa	783.2 ± 0.6	739.1 ± 0.7	731.9 ± 0.7	724.5 ± 0.7	717.6 ± 0.7
40000 kPa	788.6 ± 0.7	746.2 ± 0.8	739.3 ± 0.8	732.4 ± 0.8	725.8 ± 0.8
50000 kPa	793.7 ± 0.8	752.8 ± 0.9	746.2 ± 0.9	739.5 ± 0.9	733.3 ± 1
60000 kPa	798.6 ± 0.9	758.9 ± 1	752.6 ± 1	746.1 ± 1.1	740.2 ± 1.1
70000 kPa	803.1 ± 1	764.7 ± 1.1	758.5 ± 1.1	752.2 ± 1.2	746.5 ± 1.2
80000 kPa	807.5 ± 1.1	770.1 ± 1.2	764.1 ± 1.2	758.1 ± 1.3	752.5 ± 1.3
90000 kPa	811.8 ± 1.1	775.2 ± 1.3	769.4 ± 1.3	763.5 ± 1.4	758.1 ± 1.4
100000 kPa	815.8 ± 1.2	780.1 ± 1.4	774.4 ± 1.4	768.7 ± 1.5	763.4 ± 1.5
110000 kPa	819.6 ± 1.3	784.7 ± 1.5	779.1 ± 1.5	773.5 ± 1.6	–
120000 kPa	823.3 ± 1.4	789.2 ± 1.6	783.6 ± 1.6	778.2 ± 1.7	–
130000 kPa	826.9 ± 1.4	793.4 ± 1.7	787.9 ± 1.7	782.6 ± 1.8	–
140000 kPa	830.3 ± 1.5	797.5 ± 1.8	792.1 ± 1.8	786.9 ± 1.9	–
